# Data published in US8420631B2, “6-substituted-2,3,4,5-tetrahydro-1H-benzo[d]azepines as 5-HT2C receptor agonists” (Eli Lilly and Company, priority 2005, dated 2013).
# Tests used:
# male NIH Swiss mice [1] = test: Nestlet shredding; type: in vivo, mouse; details: with rotorod / motor effects
# Excerpt: Mice naturally will construct nests of material available in their living environment. Since this behavior is obsessive in nature, it has been used to model OCD (Xia Li, Denise Morrow and Jeffrey M. Witkin, “Decreases in nestlet shredding of mice by serotonin uptake inhibitors: comparison with marble burying”, Psychopharmacology, submitted Jul. 14, 2003). House experimentally-naïve male, NIH Swiss mice (Harlan Sprague-Dawley, Indianapolis, Ind.) weighing between 28-35 g in groups of 12 for at least three days prior to testing in a vivarium with a 12 h light/dark cycle. Conduct experiments during the light cycle in an experimental room with normal overhead fluorescent lighting. Dose mice with vehicle or test compound and after a specified pretreatment interval (generally 30 min.), place the mice individually in a 17×28×12 cm high plastic tub with about 5 mm sawdust shavings on the floor along with a pre-weighed multi-ply gauze pad (51 mm square). After 30 min., weigh the remainder of the gauze pad not removed by the mouse. Determine the weight of the gauze used for nestlet construction by subtraction. Compare the results for test compound treated mice to the results for vehicle control treated mice with Dunnett's test.
# Clinically effective OCD treatment standard compounds suppress nestlet shredding at doses that are devoid of motor-impairing effects as measured by the rotorod test. […]
# Wistar rats [2] = test: Schedule-induced polydipsia; details: rat, in vivo
# Excerpt: Food-deprived rats exposed to intermittent presentations of food will drink amounts of water that are far in excess of their normal daily intake and in excess of their intake when given all of their food at one time (Falk J L. “Production of polydipsia in normal rats by an intermittent food schedule”, Science 133: 195-196, (1961)). This excessive behavior is persistent and has been used to model OCD.
# Maintain Wistar rats on a food restricted diet (to maintain 85% free feeding weight), but with free access to water. Train the rats in a behavioral testing chamber to press a lever to receive a food pellet under a fixed interval schedule, such that the rats are rewarded with a 45 mg food pellet the first time they press a lever after a 120 second interval has elapsed. The fixed interval is then reset to 120 seconds and the process repeated. Thus, during a 90 min. test session, the rats can earn a maximum of 45 pellets. The behavioral chamber is also equipped with a water bottle that is weighed before and after the session to determine the amount of water consumed.
# Administer test compounds on Tuesdays and Fridays. […] Compare the rates of lever pressing and water consumption for each animal's performance during sessions after test compound treatment with that animal's performance during control sessions, expressed as a percent of the control rate. […]
# Wistar rats [3] = details: general statement on standards; cited from earlier work
# male NIH Swiss mice [4] = details: background statement; cited from earlier work
# male NIH Swiss mice [5] = test: Marble burying assay; type: in vivo, mouse; details: with rotorod performance
# Excerpt: Marble burying in mice has been used to model anxiety disorders including obsessive-compulsive disorders (OCD) due to ethological study of the behavior (e.g. Gyertyan I. “Analysis of the marble burying response: Marbles serve to measure digging rather than evoke burying”, Behavioural Pharmacology 6: 24-31, (1995)) and due to the pharmacological effects of clinical standards (c.f., Njung'E K. Handley S L. “Evaluation of marble-burying behavior as a model of anxiety”, Pharmacology, Biochemistry & Behavior. 38: 63-67, (1991)); Borsini F., Podhorna J., and Marazziti, D. “Do animal models of anxiety predict anxiolytic effects of antidepressants?”, Psychopharmacology 163: 121-141, (2002)).
# House experimentally-naïve male, NIH Swiss mice (Harlan Sprague-Dawley, Indianapolis, Ind.) weighing between 28-35 g in groups of 12 for at least three days prior to testing in a vivarium with 12 h light and dark cycles. Conduct experiments during the light cycle in a dimly lit experimental testing room. Dose mice with vehicle or test compound and, after a specified pretreatment interval (generally 30 min.), place each mouse individually on a rotorod (Ugo Basile 7650) operating at a speed of 6 revolutions/min. and observe for falling. […]
# Clinically effective standard compounds suppress marble burying at doses that are devoid of motor-impairing effects as measured on the rotorod. […]
compound,measurement,setting,value
C[C@H](N)Cc1ccccc1 [d-amphetamine],nestlet shredding,male NIH Swiss mice [1],decreases nestlet shredding only at doses that produce motoric side effects
same,schedule-induced polydipsia (excessive drinking),Wistar rats [2],decreases excessive drinking only at behaviorally stimulating doses
same,suppression of excessive drinking with co-administration of the 5-HT2C antagonist,Wistar rats [2],not prevented
CN(C)CCCN1c2ccccc2CCc2ccc(Cl)cc21 [chlomipramine],"schedule-induced polydipsia, clinically effective OCD standard compounds",Wistar rats [3],"suppress schedule-induced polydipsia without producing notable changes in motor patterns, food intake, or behavior the following day"
CNCCC(Oc1ccc(C(F)(F)F)cc1)c1ccccc1 (stereo not shown) [fluoxetine],marble burying (literature),male NIH Swiss mice [4],decrease burying
same,"schedule-induced polydipsia, clinically effective OCD standard compounds",Wistar rats [3],"suppress schedule-induced polydipsia without producing notable changes in motor patterns, food intake, or behavior the following day"
CN(C)CCCN1c2ccccc2Sc2ccc(Cl)cc21 [chlorpromazine],marble burying behavior,male NIH Swiss mice [5],decrease marble burying only at doses that also disrupt rotorod performance
